In US6667312B2, “Thioether substituted imidazoquinolines” (3M Innovative Properties Company, priority 2000, dated 2003):

Legend:
interferon (α) = experiment: Cytokine Induction in Human Cells: interferon; type: cell-based; settings: human PBMC, 18 to 24 hours, tested 30-0.014 μM, interferon (α) by ELISA; read-out: Lowest Effective Concentration (μM) Interferon
From the text: (§1) An in vitro human blood cell system is used to assess cytokine induction. Activity is based on the measurement of interferon and tumor necrosis factor (α) (IFN and TNF, respectively) secreted into culture media as described by Testerman et. al. In “Cytokine Induction by the Immunomodulators Imiquimod and S-27609”, Journal of Leukocyte Biology, 58, 365-372 (September, 1995).
(§2) Whole blood from healthy human donors is collected by venipuncture into EDTA vacutainer tubes. Peripheral blood mononuclear cells (PBMC) are separated from whole blood by density gradient centrifugation using Histopaque®-1077. Blood is diluted 1:1 with Dulbecco's Phosphate Buffered Saline (DPBS) or Hank's Balanced Salts Solution (HBSS). The PBMC layer is collected and washed twice with DPBS or HBSS and resuspended at 4×10^6 cells/mL in RPMI complete. The PBMC suspension is added to 48 well flat bottom sterile tissue culture plates (Costar, Cambridge, Mass. or Becton Dickinson Labware, Lincoln Park, N.J.) containing an equal volume of RPMI complete media containing test compound.
(§3) The compounds are solubilized in dimethyl sulfoxide (DMSO). The DMSO concentration should not exceed a final concentration of 1% for addition to the culture wells. The compounds are generally tested at concentrations ranging from 30-0.014 μM.
(§4) The solution of test compound is added at 60 μM to the first well containing RPMI complete and serial 3 fold dilutions are made in the wells. The PBMC suspension is then added to the wells in an equal volume, bringing the test compound concentrations to the desired range (30-0.014 μM). The final concentration of PBMC suspension is 2×10^6 cells/mL. The plates are covered with sterile plastic lids, mixed gently and then incubated for 18 to 24 hours at 37° C. in a 5% carbon dioxide atmosphere.
(§5) Following incubation the plates are centrifuged for 10 minutes at 1000 rpm (˜200× g) at 4° C. The cell-free culture supernatant is removed with a sterile polypropylene pipet and transferred to sterile polypropylene tubes. Samples are maintained at −30 to −70° C. until analysis. The samples are analyzed for interferon (α) by ELISA and for tumor necrosis factor (α) by ELISA or IGEN Assay
Interferon (α) concentration is determined by ELISA using a Human Multi-Species kit from PBL Biomedical Laboratories, New Brunswick, N.J. Results are expressed in pg/mL.
(§6) The table below lists the lowest concentration found to induce interferon and the lowest concentration found to induce tumor necrosis factor for each compound.

[1] = tested on: tumor necrosis factor (α); experiment: Cytokine Induction in Human Cells: tumor necrosis factor; type: cell-based; parameters: key to Lowest Effective Concentration (μM) Tumor Necrosis Factor: A “*” indicates that no induction was seen at any of the tested concentrations; settings: human PBMC, 18 to 24 hours, tested 30-0.014 μM, TNF by ELISA or IGEN assay; for minimal effective concentration: read-out: Lowest Effective Concentration (μM) Tumor Necrosis Factor
From the text: as §1, §2, §3, §4, §5
Tumor necrosis factor (α) (TNF) concentration is determined using ELISA kits available from Biosource International, Camarillo, Calif. Alternately, the TNF concentration can be determined by Origen® M-Series Immunoassay and read on an IGEN M-8 analyzer from IGEN International, Gaithersburg, Md. The immunoassay uses a human TNF capture and detection antibody pair from Biosource International, Camarillo, Calif. Results are expressed in pg/mL.
as §6

Compound: CCCCCCc1nc2c(N)nc3ccccc3c2n1CCCCCS(C)(=O)=O [Example 15, 2-hexyl-1-[5-(methylsulfonyl)pentyl]-1H-imidazo[4,5-c]quinolin-4-amine]
- minimal effective concentration (interferon (α)): 0.04 µM
- Lowest Effective Concentration (μM) Tumor Necrosis Factor [1]: *
- melting point: 168 to 171 °C

Compound: CS(=O)(=O)CCCCCn1cnc2c(N)nc3ccccc3c21 [Example 14, 1-[5-(methylsulfonyl)pentyl]-1H-imidazo[4,5-c]quinolin-4-amine]
- minimal effective concentration (interferon (α)): 3.33 µM
- minimal effective concentration [1]: 10 µM
- melting point: 199 to 201 °C

Compound: CCCCc1nc2c(N)nc3ccccc3c2n1CCCCS(C)(=O)=O [Example 5, 2-butyl-1-[4-(methylsulfonyl)butyl]-1H-imidazo[4,5-c]quinolin-4-amine]
- minimal effective concentration (interferon (α)): 0.01 µM
- minimal effective concentration [1]: 0.04 µM
- melting point: 164 to 165 °C

Compound: Nc1nc2ccccc2c2c1ncn2CCCCS(=O)(=O)c1ccccc1 [Example 7, 1-[4-(phenylsulfonyl)butyl]-1H-imidazo[4,5-c]quinolin-4-amine]
- minimal effective concentration (interferon (α)): 3.33 µM
- minimal effective concentration [1]: 10 µM
- melting point: 175 to 177 °C

Compound: CCCCc1nc2c(N)nc3ccccc3c2n1CCCC[S+](C)[O-] (stereo not drawn) [Example 31, 2-butyl-1-[4-(methylsulfinyl)butyl]-1H-imidazo[4,5-c]quinolin-4-amine]
- minimal effective concentration (interferon (α)): 0.04 µM
- minimal effective concentration [1]: 0.12 µM
- melting point: 126 to 128 °C

Compound: CCCc1nc2c(N)nc3ccccc3c2n1CCS(C)(=O)=O [Example 36, 1-[2-(methylsulfonyl)ethyl]-2-propyl-1H-imidazo[4,5-c]quinolin-4-amine]
- minimal effective concentration (interferon (α)): 1.11 µM
- minimal effective concentration [1]: 1.11 µM
- melting point: 212 to 214 °C

Compound: CSCCCCn1c(C)nc2c(N)nc3ccccc3c21 [Example 26, 2-methyl-1-[4-(methylthio)butyl]-1H-imidazo[4,5-c]quinolin-4-amine]
- minimal effective concentration (interferon (α)): 0.04 µM
- minimal effective concentration [1]: 0.37 µM
- melting point: 190 to 193 °C

Compound: Cc1nc2c(N)nc3ccccc3c2n1CCCCS(C)(=O)=O [Example 34, 2-methyl-1-[4-(methylsulfonyl)butyl]-1H-imidazo[4,5-c]quinolin-4-amine]
- minimal effective concentration (interferon (α)): 0.37 µM
- minimal effective concentration [1]: 3.33 µM
- melting point: 206 to 209 °C

Compound: CCCCc1nc2c(N)nc3ccccc3c2n1CCCS(=O)(=O)c1ccccc1 [Example 20, 2-butyl-1-[3-(phenylsulfonyl)propyl]-1H-imidazo[4,5-c]quinolin-4-amine]
- minimal effective concentration (interferon (α)): 0.04 µM
- minimal effective concentration [1]: 0.37 µM
- melting point: 224 to 227 °C

Compound: CCCCc1nc2c(N)nc3ccccc3c2n1CCCCSc1ccc(F)cc1F [Example 37, 2-butyl-1-{4-[(2,4-difluorophenyl)thio]butyl}-1H-imidazo[4,5-c]quinolin-4-amine]
- minimal effective concentration (interferon (α)): 0.37 µM
- minimal effective concentration [1]: 1.11 µM
- melting point: 122 to 126 °C

Compound: Cc1nc2c(N)nc3ccccc3c2n1CCCCCCS(C)(=O)=O [Example 68, 2-methyl-1-[6-(methylsulfonyl)hexyl]-1H-imidazo[4,5-c]quinolin-4-amine]
- minimal effective concentration (interferon (α)): 0.014 µM
- minimal effective concentration [1]: 0.12 µM
- melting point: 202 to 206 °C

Compound: CCCCc1nc2c(N)nc3ccccc3c2n1CCCCC[S+](C)[O-] (stereo not drawn) [Example 18, 2-butyl-1-[5-(methylsulfinyl)pentyl]-1H-imidazo[4,5-c]quinolin-4-amine]
- minimal effective concentration (interferon (α)): 0.01 µM
- minimal effective concentration [1]: 0.12 µM
- melting point: 119 to 121 °C

Compound: CCc1nc2c(N)nc3ccccc3c2n1CCCCSC [Example 28, 2-ethyl-1-[4-(methylthio)butyl]-1H-imidazo[4,5-c]quinolin-4-amine]
- minimal effective concentration (interferon (α)): 0.01 µM
- minimal effective concentration [1]: 0.37 µM
- melting point: 183 to 186 °C
